In patent US12178878B2, “Amyloid peptide scaffolds coordinate with Alzheimer's disease drugs” (The University of Massachusetts, priority 2018, dated 2024):
Where two headings read alike, the source gives them in different places.

What was measured:
[1] = system: […] (SEQ ID NO: 3) amyloid peptide; assay: Amyloid peptide/inhibitor coordination in dilute solution (1 mg/mL), drug captured after pellet washings; format: binding; details: FYTGAIIGNYF 1 mg/mL, 150 μM inhibitor loaded, by MS
Method: Amyloid Peptide/Inhibitor Coordination Studies in Dilute Solutions. […] Subsequently, 1 mL of DI water was added to wash the pellet (followed by vortexing until obtaining a homogenous dispersion) in order to remove any unbound inhibitor. The samples were then centrifuged again at the same conditions so as to pelletize the amyloid materials, and the supernatant was decanted. Another 1 mL of DI water was then added into the pellet, the mixture was vortexed, and the physically bound inhibitor into the dilute amyloid peptide dispersions was quantified by UV-Vis between 200-600 nm and MS. This step is denoted as wash 1 in our study. Two additional pellet purification cycles were realized with replacement of the decanted volume each time with 1 mL of fresh DI water (denoted as wash 2 and wash 3 respectively). The inhibitor-containing peptides amyloids were normalized at 400 nm over the respective no inhibitor-containing amyloid peptides at the specific washing step, and the measured inhibitor peak values (at 315 nm and 323 nm) were subtracted from that of the amyloid peptide carriers at the same wavelength and concentration. The amount of inhibitors coordinated with the amyloid peptide carriers was quantified based on a calibration curve by both UV-Vis and MS.
The peak at 315 nm was selected for inhibitor quantification due the absence of peaks at that range for both peptides. […] However, the peak at 315 nm was selected for inhibitor quantification, and the following equation was used for both peptides: A315=A315 ([…]/Donepezil)−A315 ([…])
The peak at 323 nm was used for inhibitor quantification due the absence of peaks at that range for both peptides.

[2] = system: […] (SEQ ID NO: 4) amyloid peptide; format: binding; details: YFTGAIIGNFY 1 mg/mL, 150 μM inhibitor loaded, by MS
Method: Amyloid Peptide/Inhibitor Coordination Studies in Dilute Solutions. […]. As a negative control, 1 mL of 0.1 M PBS buffer was added. The mixtures were vortexed and sonicated to homogenously disperse any solid aggregates and stirred overnight to allow for coordination. The mixtures were transferred to 2 mL Eppendorf tubes and centrifuged for 15 mins at 4,400 rpm (14° C.) to pelletize the amyloid bound-inhibitors, and the supernatant was decanted. Subsequently, 1 mL of DI water was added to wash the pellet (followed by vortexing until obtaining a homogenous dispersion) in order to remove any unbound inhibitor. The samples were then centrifuged again at the same conditions so as to pelletize the amyloid materials, and the supernatant was decanted. Another 1 mL of DI water was then added into the pellet, the mixture was vortexed, and the physically bound inhibitor into the dilute amyloid peptide dispersions was quantified by UV-Vis between 200-600 nm and MS. This step is denoted as wash 1 in our study. Two additional pellet purification cycles were realized with replacement of the decanted volume each time with 1 mL of fresh DI water (denoted as wash 2 and wash 3 respectively). The inhibitor-containing peptides amyloids were normalized at 400 nm over the respective no inhibitor-containing amyloid peptides at the specific washing step, and the measured inhibitor peak values (at 315 nm and 323 nm) were subtracted from that of the amyloid peptide carriers at the same wavelength and concentration. The amount of inhibitors coordinated with the amyloid peptide carriers was quantified based on a calibration curve by both UV-Vis and MS.
. The peak at 315 nm was selected for inhibitor quantification due the absence of peaks at that range for both peptides. […]. However, the peak at 315 nm was selected for inhibitor quantification, and the following equation was used for both peptides: A315=A315 ([…]/Donepezil)−A315 ([…])
[…]. The peak at 323 nm was used for inhibitor quantification due the absence of peaks at that range for both peptides. […].

[3] = system: […] (SEQ ID NO: 3) amyloid peptide; assay: Coordination at higher peptide concentration (amyloid gel, 5 mg/mL), inhibitor capturing; format: binding; details: FYTGAIIGNYF gel 5 mg/mL, 1000 μM inhibitor solution added, by MS
Method: Amyloid Fibrils Preparation and Characterization. For the formation of fibrils, the amyloid peptides were dispersed in DI water at a 10 mg/ml, vortexed, heated at 60° C. for 30 sec, and sonicated for 15 mins (this cycle was repeated 10 times overall), and finally left overnight at room temperature to form a hydrogel. […] That was confirmed with Field Emission Scanning Electron Microscopy (FESEM) and Congo Red staining (CR).
Coordination Studies at Higher Peptide Concentrations and Inhibitor Capturing. […] (SEQ ID NO: 4) or […] (SEQ ID NO: 3) amyloid peptide gels (10 mg/mL, 1 mL volume) and was left to physically complex under stirring overnight (the final peptide concentration was diluted to 5 mg/mL). A control using 1 mL of 0.1 M PBS (no inhibitor) was also prepared. The complexed amyloid/inhibitor materials were then transferred to 5 mL conical Eppendorf tubes, and centrifuged for 15 mins at 4,400 rpm (14° C.). The supernatant was decanted, and 2 mL of DI water were subsequently added to wash the pellet (followed by vortexing until obtaining a homogenous dispersion) in order to remove any unbound inhibitor. The samples were then centrifuged again at the same conditions so as to pelletize the amyloid materials, and the supernatant was decanted. Another 2 mL of DI water were then added into the pellet, the mixture was vortexed, and the physically bound inhibitor into the amyloid peptides was quantified by UV-Vis between 200-600 nm and MS. This step is denoted as wash 1 in our study. Two additional pellet purification cycles were realized with replacement of the decanted volume each time with 2 mL of fresh DI water (denoted as wash 2 and wash 3 respectively). The inhibitor-containing amyloid peptides were normalized at 400 nm over the respective no inhibitor-containing ones at the specific washing step.

[4] = system: […] (SEQ ID NO: 4) amyloid peptide; format: binding; details: YFTGAIIGNFY gel 5 mg/mL, 1000 μM inhibitor solution added, by MS
Method: Amyloid Fibrils Preparation and Characterization. For the formation of fibrils, the amyloid peptides were dispersed in DI water at a 10 mg/ml, vortexed, heated at 60° C. for 30 sec, and sonicated for 15 mins (this cycle was repeated 10 times overall), and finally left overnight at room temperature to form a hydrogel.
A control using 1 mL of 0.1 M PBS (no inhibitor) was also prepared. The complexed amyloid/inhibitor materials were then transferred to 5 mL conical Eppendorf tubes, and centrifuged for 15 mins at 4,400 rpm (14° C.). The supernatant was decanted, and 2 mL of DI water were subsequently added to wash the pellet (followed by vortexing until obtaining a homogenous dispersion) in order to remove any unbound inhibitor. The samples were then centrifuged again at the same conditions so as to pelletize the amyloid materials, and the supernatant was decanted. Another 2 mL of DI water were then added into the pellet, the mixture was vortexed, and the physically bound inhibitor into the amyloid peptides was quantified by UV-Vis between 200-600 nm and MS. This step is denoted as wash 1 in our study. Two additional pellet purification cycles were realized with replacement of the decanted volume each time with 2 mL of fresh DI water (denoted as wash 2 and wash 3 respectively). The inhibitor-containing amyloid peptides were normalized at 400 nm over the respective no inhibitor-containing ones at the specific washing step.

[5] = biological target: AChE (Homo sapiens, UniProt P22303); details: in vitro, Ellman's assay, among marketed AD drugs; cited from earlier work
Sequence of AChE (P22303 32-614): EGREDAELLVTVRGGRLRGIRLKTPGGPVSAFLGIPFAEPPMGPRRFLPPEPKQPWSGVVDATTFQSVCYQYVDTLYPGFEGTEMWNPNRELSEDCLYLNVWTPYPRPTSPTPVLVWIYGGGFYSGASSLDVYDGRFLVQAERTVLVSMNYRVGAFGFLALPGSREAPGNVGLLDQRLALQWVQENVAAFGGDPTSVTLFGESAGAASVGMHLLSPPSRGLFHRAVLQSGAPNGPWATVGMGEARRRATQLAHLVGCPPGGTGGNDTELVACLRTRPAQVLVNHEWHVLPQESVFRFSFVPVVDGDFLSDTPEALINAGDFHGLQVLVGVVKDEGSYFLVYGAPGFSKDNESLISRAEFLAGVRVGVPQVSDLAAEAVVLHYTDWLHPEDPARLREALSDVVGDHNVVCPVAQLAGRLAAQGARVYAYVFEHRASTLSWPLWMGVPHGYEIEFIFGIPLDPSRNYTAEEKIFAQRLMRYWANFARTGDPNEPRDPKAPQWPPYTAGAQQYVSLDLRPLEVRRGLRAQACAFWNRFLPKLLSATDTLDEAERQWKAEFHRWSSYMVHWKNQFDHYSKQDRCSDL

SMILES: CC12CC3CC(C)(C1)CC(N)(C3)C2 [memantine]
- AD compound captured, Wash 1 ([1]; 1st pellet wash): 18 ± 3 µM
- AD compound captured, Wash 2 ([1]; 2nd pellet wash): 5 ± 2 µM
- AD compound captured, Wash 3 ([1]; 3rd pellet wash): 4 ± 2 µM
- AD compound captured, Wash 1 ([2]; 1st pellet wash): 8 ± 1 µM
- AD compound captured, Wash 2 ([2]; 2nd pellet wash): 3 ± 1 µM
- AD compound captured, Wash 3 ([2]; 3rd pellet wash): 2 ± 1 µM
- AD compound captured, Wash 1 ([3]; 1st pellet wash): 32 ± 2 µM
- AD compound captured, Wash 2 ([3]; 2nd pellet wash): 16 ± 2 µM
- AD compound captured, Wash 3 ([3]; 3rd pellet wash): 12 ± 3 µM
- AD compound captured, Wash 1 ([4]; 1st pellet wash): 21 ± 1 µM
- AD compound captured, Wash 2 ([4]; 2nd pellet wash, room temperature): 10 ± 1 µM
- AD compound captured, Wash 3 ([4]; 3rd pellet wash, room temperature): 8 ± 1 µM
- inhibition towards AChE [5]: negligible inhibition
